Assay results as given in the supplement of paper PMC10307832.

What was measured:
Assay in all cases: relative viability (nuclei count vs DMSO), 5 days (fraction); higher = more cells survive
NCI-H1650 = tested on: NCI-H1650
Method in brief: (§1)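 Lung cancer cell lines were pin-tool dosed in 1536-well plates on the day after seeding, with either a lone drug or a fixed anchor-drug dose plus five library-drug doses (not always all listed) in √10 steps. Nuclei were counted on 4× images after 5 days. Relative viability is the ratio of treated-well to vehicle-well nuclei counts, with each value a median of duplicate plates.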

HCC-15 = tested on: HCC-15
Method in brief: as §1

COR-L23 = tested on: COR-L23
Method in brief: as §1

NCI-H838 = tested on: NCI-H838
Method in brief: as §1

SW 900 = tested on: SW 900
Method in brief: as §1

201T = tested on: 201T
Method in brief: as §1

HCC-44 = tested on: HCC-44
Method in brief: as §1

NCI-H358 = tested on: NCI-H358
Method in brief: as §1

HCC-827 = tested on: HCC-827
Method in brief: as §1

NCI-H1975 = tested on: NCI-H1975
Method in brief: as §1

NCI-H1437 = tested on: NCI-H1437
Method in brief: as §1

NCI-H23 = tested on: NCI-H23
Method in brief: as §1

NCI-H2342 = tested on: NCI-H2342
Method in brief: as §1

BEN = tested on: BEN
Method in brief: as §1

NCI-H441 = tested on: NCI-H441
Method in brief: as §1

EKVX = tested on: EKVX
Method in brief: as §1

SK-MES-1 = tested on: SK-MES-1
Method in brief: as §1

NCI-H650 = tested on: NCI-H650
Method in brief: as §1

A-427 = tested on: A-427
Method in brief: as §1

NCI-H596 = tested on: NCI-H596
Method in brief: as §1

HARA = tested on: HARA
Method in brief: as §1

## Cc1sc2c(c1C)C(c1ccc(Cl)cc1)=N[C@@H](CC(=O)OC(C)(C)C)c1nnc(C)n1-2 [JQ1] + O=C(CCCCCCC(=O)Nc1ccccc1)NO [Vorinostat] (partner 1 µM)
NCI-H1650; first compound 0.04 µM
  relative viability: 0.6
NCI-H1650; first compound 0.1265 µM
  relative viability: 0.438
NCI-H1650; first compound 0.4 µM
  relative viability: 0.475
NCI-H1650; first compound 1.265 µM
  relative viability: 0.292
NCI-H1650; first compound 4 µM
  relative viability: 0.177
HCC-15; first compound 0.04 µM
  relative viability: 0.804
HCC-15; first compound 0.1265 µM
  relative viability: 0.705
HCC-15; first compound 0.4 µM
  relative viability: 0.7
HCC-15; first compound 1.265 µM
  relative viability: 0.424
HCC-15; first compound 4 µM
  relative viability: 0.271
COR-L23; first compound 0.04 µM
  relative viability: 0.516
COR-L23; first compound 0.1265 µM
  relative viability: 0.327
COR-L23; first compound 0.4 µM
  relative viability: 0.401
COR-L23; first compound 1.265 µM
  relative viability: 0.269
COR-L23; first compound 4 µM
  relative viability: 0.207
NCI-H838; first compound 0.04 µM
  relative viability: 0.703
NCI-H838; first compound 0.1265 µM
  relative viability: 0.322
NCI-H838; first compound 0.4 µM
  relative viability: 0.488
NCI-H838; first compound 1.265 µM
  relative viability: 0.277
NCI-H838; first compound 4 µM
  relative viability: 0.319
SW 900; first compound 0.04 µM
  relative viability: 0.448
SW 900; first compound 0.1265 µM
  relative viability: 0.611
SW 900; first compound 0.4 µM
  relative viability: 0.332
SW 900; first compound 1.265 µM
  relative viability: 0.174
SW 900; first compound 4 µM
  relative viability: 0.157
201T; first compound 0.04 µM
  relative viability: 0.952
201T; first compound 0.4 µM
  relative viability: 0.73
201T; first compound 1.265 µM
  relative viability: 0.46
201T; first compound 4 µM
  relative viability: 0.367
HCC-44; first compound 0.04 µM
  relative viability: 1.12
HCC-44; first compound 0.1265 µM
  relative viability: 1.03
HCC-44; first compound 0.4 µM
  relative viability: 0.965
HCC-44; first compound 1.265 µM
  relative viability: 0.788
HCC-44; first compound 4 µM
  relative viability: 0.578
NCI-H358; first compound 0.04 µM
  relative viability: 0.662
NCI-H358; first compound 0.1265 µM
  relative viability: 0.628
NCI-H358; first compound 0.4 µM
  relative viability: 0.533
NCI-H358; first compound 1.265 µM
  relative viability: 0.161
NCI-H358; first compound 4 µM
  relative viability: 0.134
HCC-827; first compound 0.04 µM
  relative viability: 0.95
HCC-827; first compound 0.1265 µM
  relative viability: 0.464
HCC-827; first compound 1.265 µM
  relative viability: 0.904
NCI-H1975; first compound 0.04 µM
  relative viability: 0.729
NCI-H1975; first compound 0.1265 µM
  relative viability: 0.6
NCI-H1975; first compound 0.4 µM
  relative viability: 0.64
NCI-H1975; first compound 1.265 µM
  relative viability: 0.325
NCI-H1975; first compound 4 µM
  relative viability: 0.263
NCI-H1437; first compound 0.04 µM
  relative viability: 0.816
NCI-H1437; first compound 0.1265 µM
  relative viability: 0.736
NCI-H1437; first compound 0.4 µM
  relative viability: 0.686
NCI-H1437; first compound 1.265 µM
  relative viability: 0.395
NCI-H1437; first compound 4 µM
  relative viability: 0.34
NCI-H23; first compound 0.04 µM
  relative viability: 0.547
NCI-H23; first compound 0.1265 µM
  relative viability: 0.586
NCI-H23; first compound 0.4 µM
  relative viability: 0.44
NCI-H23; first compound 1.265 µM
  relative viability: 0.168
NCI-H23; first compound 4 µM
  relative viability: 0.141
NCI-H2342; first compound 0.04 µM
  relative viability: 0.722
NCI-H2342; first compound 0.1265 µM
  relative viability: 0.592
NCI-H2342; first compound 0.4 µM
  relative viability: 0.87
NCI-H2342; first compound 1.265 µM
  relative viability: 0.73
NCI-H2342; first compound 4 µM
  relative viability: 0.714
BEN; first compound 0.04 µM
  relative viability: 0.503
BEN; first compound 0.1265 µM
  relative viability: 0.545
BEN; first compound 0.4 µM
  relative viability: 0.494
BEN; first compound 1.265 µM
  relative viability: 0.456
BEN; first compound 4 µM
  relative viability: 0.351
NCI-H441; first compound 0.04 µM
  relative viability: 0.64
NCI-H441; first compound 0.1265 µM
  relative viability: 0.943
NCI-H441; first compound 0.4 µM
  relative viability: 0.886
NCI-H441; first compound 1.265 µM
  relative viability: 0.303
NCI-H441; first compound 4 µM
  relative viability: 0.199
EKVX; first compound 0.04 µM
  relative viability: 0.789
EKVX; first compound 0.4 µM
  relative viability: 0.739
EKVX; first compound 1.265 µM
  relative viability: 0.466
EKVX; first compound 4 µM
  relative viability: 0.496
SK-MES-1; first compound 0.04 µM
  relative viability: 1.1
SK-MES-1; first compound 0.1265 µM
  relative viability: 0.813
SK-MES-1; first compound 0.4 µM
  relative viability: 0.464
SK-MES-1; first compound 1.265 µM
  relative viability: 0.32
SK-MES-1; first compound 4 µM
  relative viability: 0.273
NCI-H650; first compound 0.04 µM
  relative viability: 0.43
NCI-H650; first compound 0.1265 µM
  relative viability: 0.295
NCI-H650; first compound 0.4 µM
  relative viability: 0.425
NCI-H650; first compound 1.265 µM
  relative viability: 0.242
NCI-H650; first compound 4 µM
  relative viability: 0.192
A-427; first compound 0.04 µM
  relative viability: 0.861
A-427; first compound 0.1265 µM
  relative viability: 0.748
A-427; first compound 0.4 µM
  relative viability: 0.789
A-427; first compound 1.265 µM
  relative viability: 0.594
A-427; first compound 4 µM
  relative viability: 0.429
NCI-H596; first compound 0.04 µM
  relative viability: 0.683
NCI-H596; first compound 0.1265 µM
  relative viability: 0.643
NCI-H596; first compound 0.4 µM
  relative viability: 0.436
NCI-H596; first compound 1.265 µM
  relative viability: 0.292
NCI-H596; first compound 4 µM
  relative viability: 0.311
HARA; first compound 0.04 µM
  relative viability: 0.464
HARA; first compound 0.1265 µM
  relative viability: 0.514
HARA; first compound 0.4 µM
  relative viability: 0.396
HARA; first compound 1.265 µM
  relative viability: 0.347
HARA; first compound 4 µM
  relative viability: 0.301
